Source: publication PMC5507300, “Antibacterial small molecules targeting the conserved TOPRIM domain of DNA gyrase” (PLoS ONE, 2017)
≈ marks a conversion by molar mass, not a printed value. Where two headings read alike, the source gives them in different places.

Key:
Format in all cases: cell-based
E. coli HS151 (ΔtolC) = test: microbe, parasite or virus in culture; conditions: Escherichia coli
Source text: (§1) E. coli HS151 (ΔtolC) has been described previously. […] E. coli BW25113 and the Keio gene deletion collection based on BW25113 [25] were obtained from Thermo Fisher Scientific (Waltham, MA) and described in [26]. The plasmid-borne FQ resistance determinant, qnrVC3 [27], was kindly provided by D. Hooper (Massachusetts General Hospital). […] MB2884 (E. coli) and CL15245 (K. pneumoniae) are clinical isolates from the Merck & Co., Inc., Kenilworth, NJ, USA, strain collection. S. aureus COL is a methicillin-resistant clinical isolate.
(§2) Compound doubling dilutions were prepared in 100% DMSO (Sigma Aldrich) and 2 μL of each dilution was transferred to a 96-well plate with lid (Thermo Scientific). Inoculum for all MIC testing was prepared using the BBL Prompt Inoculation System (Becton Dickinson, Franklin Lakes, NJ USA) as described by the manufacturer to produce a suspension of cells at approximately 1.5 x 10^8 colony forming units (CFU)/mL [34–36] and a further dilution (1:1000) was made into cation adjusted Mueller-Hinton broth (CAMH broth, Becton-Dickinson). One hundred μL of this inoculum were then transferred to each well of the 96-well plate containing diluted compound (above). Plates were covered and incubated overnight (18 hrs.) at 37°C.

E. coli CIP101 GyrA D87N = test: microbe, parasite or virus in culture; conditions: Escherichia coli
Protocol: as §2

[1] = system: E. coli GYR101 GyrB F513L; test: microbe, parasite or virus in culture; conditions: Escherichia coli
Source text: as §1, §2
(§3) After the agar solidified, 5 μL of a saturated bacterial culture, grown in CAMH broth, were dispensed on the agar surface and allowed to dry at room temperature. […] After the surface dried at room temperature the plate was incubated at 37°C overnight. […] Genomic DNA from the parent strain (E. coli HS151) and purified (restreaked) resistant isolates was obtained with a GeneJET genomic DNA purification kit according to the manufacturer’s instructions (Fisher Scientific). Assembled whole genome mutant sequences were then compared to the parent strain and polymorphisms were identified as described.

[2] = system: E. coli GYR105 GyrB T469K; test: microbe, parasite or virus in culture; conditions: Escherichia coli
Source text: as §1, §2, §3

[3] = system: E. coli GYR102 GyrB E466EV; test: microbe, parasite or virus in culture; conditions: Escherichia coli
Source text: as §1, §2, §3

[4] = system: E. coli GYR104 GyrB L470I; test: microbe, parasite or virus in culture; conditions: Escherichia coli
Source text: as §1, §2, §3

[5] = system: E. coli GYR108 GyrB L470I/V467L; test: microbe, parasite or virus in culture; conditions: Escherichia coli
Source text: as §1, §2, §3

[6] = system: E. coli GYR107 GyrB F513L/L422V; test: microbe, parasite or virus in culture; conditions: Escherichia coli
Source text: as §1, §2, §3

[7] = system: E. coli GYR106 GyrB F513L/A468V; test: microbe, parasite or virus in culture; conditions: Escherichia coli
Source text: as §1, §2, §3

[8] = system: E. coli GYR103 GyrB L446Q; test: microbe, parasite or virus in culture; conditions: Escherichia coli
Source text: (§4) E. coli HS151 (ΔtolC) has been described previously. Gyrase inhibitor-resistant isolates (GYR101-108) were derived by selection for spontaneous resistance to MRL-770 or MRL-423 (Fig 1) in E. coli HS151 as described below. E. coli BW25113 and the Keio gene deletion collection based on BW25113 [25] were obtained from Thermo Fisher Scientific (Waltham, MA) and described in [26]. The plasmid-borne FQ resistance determinant, qnrVC3 [27], was kindly provided by D. Hooper (Massachusetts General Hospital). MB9796 (A. baumannii) is a derivative of MB9797 (ATCC19606) lacking lipopolysaccharide. The efflux-defective P. aeruginosa strain MB5890 (CB398) is a derivative of MB5919 (PAO1). MB2884 (E. coli) and CL15245 (K. pneumoniae) are clinical isolates from the Merck & Co., Inc., Kenilworth, NJ, USA, strain collection. S. aureus COL is a methicillin-resistant clinical isolate.
as §2
After the agar solidified, 5 μL of a saturated bacterial culture, grown in CAMH broth, were dispensed on the agar surface and allowed to dry at room temperature. […] To select for resistance, a 100 mm petri dish was filled with 25 mL CAMH agar containing 8 μg/mL MRL-770 or 0.5 μg/mL MRL-423 (Fig 1). The cells in 1 mL of an overnight culture of E. coli HS151 (~10^9 CFU/mL) were concentrated by centrifugation and spread onto the surface of an MRL-770 or MRL-423 containing plate. After the surface dried at room temperature the plate was incubated at 37°C overnight. Any colonies that arose were counted and an approximate frequency of resistance was calculated after confirming resistance by restreaking on media containg compound as well as measuring MICs (see Results). Genomic DNA from the parent strain (E. coli HS151) and purified (restreaked) resistant isolates was obtained with a GeneJET genomic DNA purification kit according to the manufacturer’s instructions (Fisher Scientific). Assembled whole genome mutant sequences were then compared to the parent strain and polymorphisms were identified as described.

[9] = system: K. pneumoniae CL15245 (clinical isolate); test: Broth microdilution MIC, K. pneumoniae CL15245; conditions: Klebsiella pneumoniae
Source text: as §1, §2

[10] = system: P. aeruginosa MB5919 (PAO1); test: Broth microdilution MIC, P. aeruginosa MB5919; conditions: Pseudomonas aeruginosa
Source text: as §1, §2

[11] = system: P. aeruginosa(effluxΔ) MB5890; test: microbe, parasite or virus in culture; conditions: Pseudomonas aeruginosa
Source text: as §1, §2

[12] = system: A. baumanii MB9797 (ATCC19606); test: Broth microdilution MIC, A. baumannii MB9797; conditions: Acinetobacter baumannii
Source text: as §4, §2

[13] = system: A. baumannii ΔlpxC MB9796; test: Broth microdilution MIC, A. baumannii MB9796; conditions: Acinetobacter baumannii
Source text: as §4, §2

[14] = system: E. coli MB2884 (clinical isolate); test: Broth microdilution MIC, E. coli MB2884; conditions: Escherichia coli
Source text: as §1, §2

S. aureus (MRSA) COL = test: Broth microdilution MIC, S. aureus COL; conditions: Staphylococcus aureus, MRSA
Source text: as §4, §2

Structure (SMILES) | MIC (E. coli CIP101 GyrA D87N) [µg/mL] | MIC [1] [µg/mL] | MIC [3] [µg/mL] | MIC [4] [µg/mL] | MIC [7] [µg/mL] | MIC [8] [µg/mL] | MIC [13] [µg/mL] | MIC (S. aureus (MRSA) COL) [µg/mL] | other results
COc1cc(Cc2cnc(N)nc2N)cc(OC)c1OC [Trimeth-oprim] | 0.0625 (≈ 0.215 µM) | 0.0625 (≈ 0.215 µM) | 0.0625 (≈ 0.215 µM) | 0.0625 (≈ 0.215 µM) | 0.0625 (≈ 0.215 µM) | 0.0625 (≈ 0.215 µM) | – | – | MIC (E. coli HS151 (ΔtolC); Table 2, HS151, GyrB mutation none): 0.0625 µg/mL (≈ 0.215 µM); MIC [2]: 0.0625 µg/mL (≈ 0.215 µM); MIC [5]: 0.125 µg/mL (≈ 0.431 µM); MIC [6]: 0.0625 µg/mL (≈ 0.215 µM)
CO[C@H]1/C=C/O[C@@]2(C)Oc3c(C)c(O)c4c(O)c(c(/C=N/N5CCN(C)CC5)c(O)c4c3C2=O)NC(=O)/C(C)=C\C=C\[C@H](C)[C@H](O)[C@@H](C)[C@@H](O)[C@@H](C)[C@H](OC(C)=O)[C@@H]1C [rifampicin] | 8 (≈ 9.72 µM) | – | – | – | – | – | < 0.0625 | < 0.0625 | MIC ([9]; Table 1, CL15245 K. pneumoniae, read-out: MIC): 32 µg/mL (≈ 38.9 µM); MIC ([10]; Table 1, MB5919 P. aeruginosa, read-out: MIC): 32 µg/mL (≈ 38.9 µM); MIC [11]: 32 µg/mL (≈ 38.9 µM); MIC ([12]; Table 1, MB9797 A. baumanii, read-out: MIC): 2 µg/mL (≈ 2.43 µM); MIC ([14]; Table 1, MB2884 E. coli, read-out: MIC): 8 µg/mL (≈ 9.72 µM)
C[C@H]1COc2c(N3CCN(C)CC3)c(F)cc3c(=O)c(C(=O)O)cn1c23 [levofloxacin] | 0.0625 (≈ 0.173 µM) | 0.0078 (≈ 0.0216 µM) | 0.0312 (≈ 0.0865 µM) | 0.0078 (≈ 0.0216 µM) | 0.0078 (≈ 0.0216 µM) | 0.0078 (≈ 0.0216 µM) | 0.0156 (≈ 0.0432 µM) | > 0.125 | MIC [9]: 0.0156 µg/mL (≈ 0.0432 µM); MIC [10]: > 0.125 µg/mL; MIC (E. coli HS151 (ΔtolC); 18 h, Table 1, HS151 E. coli ΔtolC): 0.00195 µg/mL (≈ 0.0054 µM); MIC [12]: 0.125 µg/mL (≈ 0.346 µM); MIC [14]: 0.0156 µg/mL (≈ 0.0432 µM)
